Assay results as given in patent US20040024024A1, “Aromatic sulfone hydroxamates and their use as protease inhibitors” (priority 2001, published 2004).
pKi: −log10 of the molar value.

What was measured:
Human recombinant MMP-14 = target: T1, Human recombinant MMP-14 (Homo sapiens, UniProt P50281); assay: In vitro MMP inhibition, Ki determination (fluorogenic substrate II); type: biochemical
T1 construct: The catalytic domain enzyme was expressed in E. coli inclusion bodies, solubilized in urea; made in house
Summary of the method: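 Refolded E. coli-expressed MMP-14 catalytic domain, APMA- or trypsin-activated, incubated 1 h at room temperature with 4 μM fluorogenic substrate II in pH 7.5 Tris/NaCl/CaCl2 buffer; fluorescence read at 330/420 nm. Ki from Morrison-equation non-linear regression, substrate at or below Km, uncorrected for substrate.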

Human recombinant MMP-2 = target: T2, Human recombinant MMP-2 (Homo sapiens, UniProt P08253); assay: as above; type: biochemical
T2 construct: made in house; host or cells: MMP-2-transfected p2AHT2 cells
T2 sequence (P08253 110-660): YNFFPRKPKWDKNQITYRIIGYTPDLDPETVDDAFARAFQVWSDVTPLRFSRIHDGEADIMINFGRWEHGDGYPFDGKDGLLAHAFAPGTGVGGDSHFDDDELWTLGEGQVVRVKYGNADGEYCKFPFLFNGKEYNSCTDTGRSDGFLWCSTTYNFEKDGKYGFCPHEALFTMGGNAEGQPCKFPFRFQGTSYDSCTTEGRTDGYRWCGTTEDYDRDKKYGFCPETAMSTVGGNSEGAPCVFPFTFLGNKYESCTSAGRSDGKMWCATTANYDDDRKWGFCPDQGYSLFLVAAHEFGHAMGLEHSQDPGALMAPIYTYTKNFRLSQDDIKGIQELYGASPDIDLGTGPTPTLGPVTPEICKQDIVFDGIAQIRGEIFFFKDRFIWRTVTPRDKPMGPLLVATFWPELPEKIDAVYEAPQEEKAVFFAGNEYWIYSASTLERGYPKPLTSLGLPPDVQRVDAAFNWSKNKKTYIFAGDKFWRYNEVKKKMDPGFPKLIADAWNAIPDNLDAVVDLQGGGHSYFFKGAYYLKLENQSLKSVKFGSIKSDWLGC

[1] = substrate (II) 4 μM, 1 hr room temperature, apparent Ki, values in parenthesis

pKi (Human recombinant MMP-14; [1]) | pKi (Human recombinant MMP-2; [1]) | pKi (Human recombinant MMP-14; value in parenthesis) | pKi (Human recombinant MMP-2; value in parenthesis) | SMILES
< 5.00 | 6.65 |  |  | COCCN1CCC(C(=O)NO)(S(=O)(=O)c2ccc(OCCc3cccc(-c4ccccc4)c3)cc2)CC1 [Example 45]
< 5.00 | 5.95 |  |  | COCCN1CCC(C(=O)NO)(S(=O)(=O)c2ccc(OCCCc3cccc(-c4ccc(Cl)cc4)c3)cc2)CC1 [Example 50]
< 5.00 | 6.27 |  |  | COCCN1CCC(C(=O)NO)(S(=O)(=O)c2ccc(OCCCc3cccc(-c4ccc(F)c(F)c4)c3)cc2)CC1 [Example 52]
 |  | < 5.00 | 6.17 | O=C(NO)C1(S(=O)(=O)c2ccc(OCCCc3nc(-c4ccc(OC(F)(F)F)cc4)no3)cc2)CCN(Cc2ccccc2)CC1 [Example 93]
 |  | < 5.00 | 5.09 | CC(C)c1ccc(-c2cccc(CCOc3ccc(S(=O)(=O)C4(C(=O)NO)CCOCC4)cc3)c2)cc1 [Example 109]
 |  | < 5.00 | 6.95 | O=C(NO)C1(S(=O)(=O)c2ccc(OCCc3cccc(-c4cc(F)cc(F)c4)c3)cc2)CCOCC1 [Example 110]
 |  | < 5.00 | 6.11 | O=C(NO)C1(S(=O)(=O)c2ccc(OCCc3cccc(-c4cccc(F)c4)c3)cc2)CCOCC1 [Example 111]
 |  | < 5.00 | 5.40 | O=C(NO)C1(S(=O)(=O)c2ccc(OCCc3cccc(-c4ccc(OC(F)(F)F)cc4)c3)cc2)CCOCC1 [Example 112]
 |  | < 5.00 | 5.82 | O=C(NO)C1(S(=O)(=O)c2ccc(OCCc3cccc(-c4ccccc4Cl)c3)cc2)CCOCC1 [Example 114]
 |  | < 5.00 | 5.90 | Cc1ccccc1-c1cccc(CCOc2ccc(S(=O)(=O)C3(C(=O)NO)CCOCC3)cc2)c1 [Example 116]
 |  | < 5.00 | 5.44 | Cc1ccc(-c2cccc(CCOc3ccc(S(=O)(=O)C4(C(=O)NO)CCOCC4)cc3)c2)cc1C [Example 117]
 |  | < 5.00 | 5.58 | Cc1cc(-c2cccc(CCOc3ccc(S(=O)(=O)C4(C(=O)NO)CCOCC4)cc3)c2)ccc1Cl [Example 118]
 |  | < 5.00 | 5.77 | COc1ccc(-c2cccc(CCOc3ccc(S(=O)(=O)C4(C(=O)NO)CCOCC4)cc3)c2)cc1C [Example 119]
 |  | < 5.00 | 5.34 | O=C(NO)C1(S(=O)(=O)c2ccc(OCCc3cccc(-c4ccc(Cl)c(Cl)c4)c3)cc2)CCOCC1 [Example 121]
 |  | < 5.00 | 5.24 | O=C(NO)C1(S(=O)(=O)c2ccc(OCCc3cccc(-c4ccc(Cl)cc4Cl)c3)cc2)CCOCC1 [Example 124]
 |  | < 5.00 | 5.20 | O=C(NO)C1(S(=O)(=O)c2ccc(OCCc3cccc(-c4cc(Cl)cc(Cl)c4)c3)cc2)CCOCC1 [Example 126]
 |  | < 5.00 | 5.95 | COCCN1CCC(C(=O)NO)(S(=O)(=O)c2ccc(OCCCc3nc(-c4ccc(CC(C)C)cc4C)no3)cc2)CC1 [Example 128]
 |  | < 5.00 | 7.30 | NC(=O)c1cccc(-c2noc(CCCOc3ccc(S(=O)(=O)C4(C(=O)NO)CCN(C5CC5)CC4)cc3)n2)c1 [Example 129]
 |  | 5.02 | 7.23 | COCCN1CCC(C(=O)NO)(S(=O)(=O)c2ccc(OCCCc3nc(-c4ccc(Br)cc4C)no3)cc2)CC1 [Example 135]
 |  | < 5.00 | 7.44 | O=C(NO)C1(S(=O)(=O)c2ccc(OCCCc3nc(C4CCCCC4)no3)cc2)CCN(C2CC2)CC1 [Example 137]
 |  | < 5.00 | 5.09 | Cc1cc(-c2cccc(CCCOc3ccc(S(=O)(=O)C4(C(=O)NO)CCOCC4)cc3)c2)ccc1Cl [Example 166]
 |  | < 5.00 | 5.26 | Cc1cc(-c2cccc(CCCOc3ccc(S(=O)(=O)C4(C(=O)NO)CCOCC4)cc3)c2)ccc1F [Example 168]
 |  | < 5.00 | 5.27 | O=C(NO)C1(S(=O)(=O)c2ccc(OCCCc3cccc(-c4ccc(Cl)c(Cl)c4)c3)cc2)CCOCC1 [Example 169]
 |  | < 5.00 | 5.85 | O=C(NO)C1(S(=O)(=O)c2ccc(OCCCc3cccc(-c4ccc(F)c(F)c4)c3)cc2)CCOCC1 [Example 170]
